Experimental data: PubChem BioAssay AID1083212 (The Scripps Research Institute Molecular Screening Center, 2014)
Calls of active or inactive are those of the source.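 Rule for the calls: active = IC50 of 10 µM or lower; inactive = IC50 above 10 µM.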

biological target: Tyrosyl-DNA phosphodiesterase 2 (Homo sapiens) (UniProt O95551); test: potency against TDP2 phosphodiesterase activity – biochemical, epi absorbance, IC50, late-stage follow-up (AID 1083212); conditions: recombinant TDP2, T5PNP hydrolysis, p-nitrophenol absorbance 415 nm
Sequence (O95551 whole entry, looked up): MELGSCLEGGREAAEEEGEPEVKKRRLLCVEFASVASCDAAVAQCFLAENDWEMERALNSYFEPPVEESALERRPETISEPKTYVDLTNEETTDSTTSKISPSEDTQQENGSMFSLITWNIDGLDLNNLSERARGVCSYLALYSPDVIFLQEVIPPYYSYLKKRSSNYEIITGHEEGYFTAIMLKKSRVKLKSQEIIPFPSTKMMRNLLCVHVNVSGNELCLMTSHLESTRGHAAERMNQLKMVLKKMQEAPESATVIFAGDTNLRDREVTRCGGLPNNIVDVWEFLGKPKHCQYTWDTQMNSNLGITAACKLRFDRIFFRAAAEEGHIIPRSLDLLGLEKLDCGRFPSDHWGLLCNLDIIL

IC50	Structure (SMILES)
1.32 µM	O=C(O)c1ccc(NC2=C/C(=N/S(=O)(=O)c3cccs3)c3ccccc3C2=O)cc1
> 128 µM (inactive)	COc1ccc(CNC(=S)Nc2ccc(S(N)(=O)=O)cc2)cc1
> 128 µM (inactive)	Cc1ccc(NC2=C/C(=N\S(=O)(=O)c3cccs3)c3ccccc3C2=O)cc1
